One compound from paper PMC5818190, “An allosteric binding site of the α7 nicotinic acetylcholine receptor revealed in a humanized acetylcholine-binding protein” (The Journal of Biological Chemistry, 2017) can be followed below.

The target of the assay is T1, human α7 nAChR (Homo sapiens, UniProt P36544).
T1 construct: gene CHRNA7; full-length receptor, cRNA from pMXT vector, Xenopus laevis oocytes; homomeric pentamer
The assay can be described thus: two-electrode voltage clamp, Xenopus oocytes. The class given is cell-based. A general note: In two-electrode clamp one electrode senses voltage and the other passes current.

T1 sequence (P36544 23-502): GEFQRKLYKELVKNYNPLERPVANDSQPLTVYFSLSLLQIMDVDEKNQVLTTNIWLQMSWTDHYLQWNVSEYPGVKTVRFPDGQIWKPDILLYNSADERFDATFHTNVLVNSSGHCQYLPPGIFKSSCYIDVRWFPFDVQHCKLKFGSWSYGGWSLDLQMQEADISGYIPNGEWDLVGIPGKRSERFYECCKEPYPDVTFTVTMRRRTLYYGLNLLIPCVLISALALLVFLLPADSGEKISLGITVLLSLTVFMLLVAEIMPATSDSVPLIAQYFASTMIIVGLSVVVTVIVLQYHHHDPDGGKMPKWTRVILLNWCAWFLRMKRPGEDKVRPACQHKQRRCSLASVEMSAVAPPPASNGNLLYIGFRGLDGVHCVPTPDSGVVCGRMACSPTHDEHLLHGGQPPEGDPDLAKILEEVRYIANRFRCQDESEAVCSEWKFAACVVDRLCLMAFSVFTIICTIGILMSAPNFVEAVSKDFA

Usually IC50 stands for the midpoint of a concentration-inhibition curve. As to `O=C(Nc1ccc(Br)cn1)[C@@H]1CCCNC1` [CU2017, N-(5-bromopyridin-2-yl)piperidine-3-carboxamide], the IC50 was 26.7 ± 1.6 µM.
